Positions of bridges follow the written chain, without caps; N, C: chain ends. Residues, ends and D or L forms follow the SMILES beside them.
Target: T1, amylin receptor, AMY1, a CT (calcitonin) receptor/RAMP1 (receptor-activity modifying protein) complex (Homo sapiens, UniProt O60894+P30988)
T1 construct: host or cells: CHO-K1/AMY1/Gα15
Assay: Calcium flux assay (FLIPR Calcium 4) of inhibition of α-CGRP stimulation in CHO-K1/AMY1/Gα15 cells
Assay type: cell-based
Settings: at maximal test concentration (series starts with 1 μM); CHO-K1/AMY1/Gα15 cells stimulated with 32 nM (EC80) α-CGRP; n = 2; read-out: % Inhibition @ Maximal concentration (Mean +/− SD, n = 2)
Method: Using a calcium flux assay, the dose-dependent inhibitory response of peptide antagonists of the present invention on an amylin receptor, AMY1, a CT (calcitonin) receptor/RAMP1 (receptor-activity modifying protein) complex was determined. The recombinant cell line CHO-K1/AMY1/Gα15 (GenScript, Piscataway, N.J., Catalog No. M00475) was employed in the assay. Peptide antagonist activities were tested, in duplicate, at five different concentrations, starting with 1 μM and serially diluted five-fold, in DMSO. AC187 (SEQ ID NO: 55), a known amylin receptor antagonist (available for example from Tocris Bioscience, Minneapolis, Minn., Catalog No. 3419) was used as a positive control in the assays, and human α-CGRP, a known amylin receptor agonist (SEQ ID NO:56) , (available for example from Tocris Bioscience, Minneapolis, Minn., Catalog No. 3012) was used as a positive control in the assays. The FLIPR® Calcium 4 Assay Kit (Molecular Devices, Sunnyvale, Calif.) was used.
Human α-CGRP having the amino acid sequence, NH2-[…]-NH2 (SEQ ID NO:56) and AC187 having the sequence […] (SEQ ID NO: 55) were employed as negative and positive controls, respectively. Stock solutions were further diluted in HBSS-HEPES buffer to make 5×final control solutions.
CHO-K1/AMY1/Gα15 cells were seeded in a 384-well black wall, clear bottom plate at a density of 20,000 cells/well in 20 μL of growth medium 20 hours prior to the day of the experiment and maintained at 37° C./5% CO2.
Per the assay kit protocol, dye-loading solution (at 2×final concentration) was added into the assay plate, 20 μL per well. Compound solution (at 5 ×final concentration) was added into the assay plate, 10 uL per well. The assay plate was placed into a 37° C. incubator for 1 hour, then left for 15 min at RT. The agonist plate (at 5×EC80 concentration) was placed in Source 2. The total reading time was 120 sec. The agonist was added after 20 seconds reading of the baseline and the fluorescence signal was captured for another 100 seconds (21 s to 120 s).
In screening, cells stimulated with assay buffer were chosen as the background; cells stimulated with agonist (at […] concentration) were chosen as the negative control.
Data were recorded by ScreenWorks (version 3.1) as FMD files and stored on the GenScript computer network for off-line analysis. Data acquisition and analyses was performed using ScreenWorks (version 3.1) program and exported to Excel. The average value of 20 (1 s to 20 s) seconds reading was calculated as the baseline reading and the relative fluorescent units (ΔRFU) intensity values were calculated with the maximal fluorescent units (21 s to 120 s) subtracting the average value of baseline reading.
The IC50 value of AC187 was 8 μM. The inhibitory activity of the tested peptide antagonists was normalized with the negative control (AC187) and reported as % Inhibition, calculated from the following equation: % Inhibition=(ΔRFUcompound−ΔRFUBackground)/(ΔRFUNegative control−ΔRFUBackground) * 100% Inhibition was then plotted along the Y-axis, with the test concentrations as indicated on the X-axis. The peptides were tested at indicated concentrations and stimulated with 32 nM (EC80) α-CGRP (Mean +/− SD, n=2).

T1 sequence (P30988 25-474): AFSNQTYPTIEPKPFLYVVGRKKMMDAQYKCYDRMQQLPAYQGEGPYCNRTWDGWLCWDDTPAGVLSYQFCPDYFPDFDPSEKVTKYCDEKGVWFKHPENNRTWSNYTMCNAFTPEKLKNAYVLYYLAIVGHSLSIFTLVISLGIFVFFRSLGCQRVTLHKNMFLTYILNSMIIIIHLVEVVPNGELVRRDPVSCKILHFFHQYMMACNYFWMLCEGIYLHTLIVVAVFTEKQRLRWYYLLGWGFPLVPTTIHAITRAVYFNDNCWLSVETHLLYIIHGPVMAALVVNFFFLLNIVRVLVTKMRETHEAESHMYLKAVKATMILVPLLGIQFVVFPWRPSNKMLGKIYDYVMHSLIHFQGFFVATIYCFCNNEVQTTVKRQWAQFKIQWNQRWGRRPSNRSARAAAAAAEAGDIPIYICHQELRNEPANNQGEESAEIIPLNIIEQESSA
T1 sequence (O60894 27-148): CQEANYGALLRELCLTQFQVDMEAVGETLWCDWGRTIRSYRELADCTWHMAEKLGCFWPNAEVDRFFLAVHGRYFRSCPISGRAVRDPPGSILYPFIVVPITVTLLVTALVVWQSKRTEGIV

| SMILES | inhibition at 1 µM |
| --- | --- |
| CC(C)C[C@H](NC(=O)[C@H](CCCNC(=N)N)NC(=O)CNC(=O)[C@H](CC(C)C)NC(=O)[C@@H](NC(=O)[C@@H]1CSSC[C@H](N)C(=O)N[C@@H](CO)C(=O)N[C@@H](CC(N)=O)C(=O)N[C@@H]([C@@H](C)O)C(=O)N[C@@H](C)C(=O)N[C@@H](C)C(=O)N1)C(C)C)C(=O)N[C@@H](CO)C(=O)N[C@@H](CCC(N)=O)C(=O)N[C@@H](CCC(=O)O)C(=O)N[C@@H](CC(C)C)C(=O)N[C@@H](Cc1c[nH]cn1)C(=O)N[C@@H](CCCNC(=N)N)C(=O)N[C@@H](CC(C)C)C(=O)N[C@@H](CCC(N)=O)C(=O)N[C@H](C(=O)N[C@@H](Cc1ccc(O)cc1)C(=O)N1CCC[C@H]1C(=O)N[C@@H](CCCNC(=N)N)C(=O)N[C@H](C(=O)N[C@@H](CC(N)=O)C(=O)N[C@H](C(=O)NCC(=O)N[C@@H](CO)C(=O)N[C@@H](CCCCN)C(=O)N[C@@H](C)C(=O)N[C@@H](Cc1ccccc1)C(N)=O)C(C)C)[C@@H](C)O)[C@@H](C)O [compound 8] (H-CSNTAACVLGRLSQELHRLQTYPRTNVGSKAF-NH2; disulfide 1-7 (inferred)) | 95.4% |
| CC(C)C[C@@H]1NC(=O)[C@H](C)NC(=O)[C@H]([C@@H](C)O)NC(=O)[C@H](CC(=O)O)NC(=O)[C@@H](NC(=O)[C@H](C)N)CSSC[C@@H](C(=O)N[C@H](C(=O)N[C@@H](CC(C)C)C(=O)NCC(=O)N[C@@H](CCCNC(=N)N)C(=O)N[C@@H](CC(C)C)C(=O)N[C@@H](CO)C(=O)N[C@@H](CCC(N)=O)C(=O)N[C@@H](CCC(=O)O)C(=O)N[C@@H](CC(C)C)C(=O)N[C@@H](Cc2c[nH]cn2)C(=O)N[C@@H](CCCNC(=N)N)C(=O)N[C@@H](CC(C)C)C(=O)N[C@@H](CCC(N)=O)C(=O)N[C@H](C(=O)N[C@@H](Cc2ccc(O)cc2)C(=O)N2CCC[C@H]2C(=O)N[C@@H](CCCNC(=N)N)C(=O)N[C@H](C(=O)N[C@@H](CC(N)=O)C(=O)N[C@H](C(=O)NCC(=O)N[C@@H](CO)C(=O)N[C@@H](CCCCN)C(=O)N[C@@H](C)C(=O)N[C@@H](Cc2ccccc2)C(N)=O)C(C)C)[C@@H](C)O)[C@@H](C)O)C(C)C)NC1=O [compound 9] (H-ACDTALCVLGRLSQELHRLQTYPRTNVGSKAF-NH2; disulfide 2-7 (inferred)) | 95.6% |
| CC[C@H](C)[C@@H]1NC(=O)[C@H](C)NC(=O)[C@H]([C@@H](C)O)NC(=O)[C@H](CC(=O)O)NC(=O)[C@@H](NC(=O)[C@H](C)N)CSSC[C@@H](C(=O)N[C@H](C(=O)N[C@@H](CC(C)C)C(=O)NCC(=O)N[C@@H](CCCNC(=N)N)C(=O)N[C@@H](CC(C)C)C(=O)N[C@@H](CO)C(=O)N[C@@H](CCC(N)=O)C(=O)N[C@@H](CCC(=O)O)C(=O)N[C@@H](CC(C)C)C(=O)N[C@@H](Cc2c[nH]cn2)C(=O)N[C@@H](CCCNC(=N)N)C(=O)N[C@@H](CC(C)C)C(=O)N[C@@H](CCC(N)=O)C(=O)N[C@H](C(=O)N[C@@H](Cc2ccc(O)cc2)C(=O)N2CCC[C@H]2C(=O)N[C@@H](CCCNC(=N)N)C(=O)N[C@H](C(=O)N[C@@H](CC(N)=O)C(=O)N[C@H](C(=O)NCC(=O)N[C@@H](CO)C(=O)N[C@@H](CCCCN)C(=O)N[C@@H](C)C(=O)N[C@@H](Cc2ccccc2)C(N)=O)C(C)C)[C@@H](C)O)[C@@H](C)O)C(C)C)NC1=O [compound 10] (H-ACDTAICVLGRLSQELHRLQTYPRTNVGSKAF-NH2; disulfide 2-7 (inferred)) | 96.8% |
| CC(C)C[C@H](NC(=O)[C@H](CCCNC(=N)N)NC(=O)CNC(=O)[C@H](CC(C)C)NC(=O)[C@@H](NC(=O)[C@@H]1CSSC[C@H](NC(=O)[C@H](C)N)C(=O)N[C@@H](CC(N)=O)C(=O)N[C@@H](CC(C)C)C(=O)N[C@@H](CO)C(=O)N[C@@H](C(C)C)C(=O)N1)C(C)C)C(=O)N[C@@H](CO)C(=O)N[C@@H](CCC(N)=O)C(=O)N[C@@H](CCC(=O)O)C(=O)N[C@@H](CC(C)C)C(=O)N[C@@H](Cc1c[nH]cn1)C(=O)N[C@@H](CCCNC(=N)N)C(=O)N[C@@H](CC(C)C)C(=O)N[C@@H](CCC(N)=O)C(=O)N[C@H](C(=O)N[C@@H](Cc1ccc(O)cc1)C(=O)N1CCC[C@H]1C(=O)N[C@@H](CCCNC(=N)N)C(=O)N[C@H](C(=O)N[C@@H](CC(N)=O)C(=O)N[C@H](C(=O)NCC(=O)N[C@@H](CO)C(=O)N[C@@H](CCCCN)C(=O)N[C@@H](C)C(=O)N[C@@H](Cc1ccccc1)C(N)=O)C(C)C)[C@@H](C)O)[C@@H](C)O [compound 11] (H-ACNLSVCVLGRLSQELHRLQTYPRTNVGSKAF-NH2; disulfide 2-7 (inferred)) | 96.5% |
| CC(C)C[C@H](NC(=O)[C@H](CCCNC(=N)N)NC(=O)CNC(=O)[C@H](CC(C)C)NC(=O)[C@@H](NC(=O)[C@@H]1CSSC[C@H](N)C(=O)N[C@@H](CO)C(=O)N[C@@H](CC(N)=O)C(=O)N[C@@H]([C@@H](C)O)C(=O)N[C@@H](C)C(=O)N[C@@H](C(C)C)C(=O)N1)C(C)C)C(=O)N[C@@H](CO)C(=O)N[C@@H](CCC(N)=O)C(=O)N[C@@H](CCC(=O)O)C(=O)N[C@@H](CC(C)C)C(=O)N[C@@H](Cc1c[nH]cn1)C(=O)N[C@@H](CCCNC(=N)N)C(=O)N[C@@H](CC(C)C)C(=O)N[C@@H](CCC(N)=O)C(=O)N[C@H](C(=O)N[C@@H](Cc1ccc(O)cc1)C(=O)N1CCC[C@H]1C(=O)N[C@@H](CCCNC(=N)N)C(=O)N[C@H](C(=O)N[C@@H](CC(N)=O)C(=O)N[C@H](C(=O)NCC(=O)N[C@@H](CO)C(=O)N[C@@H](CCCCN)C(=O)N[C@@H](C)C(=O)N[C@@H](Cc1ccccc1)C(N)=O)C(C)C)[C@@H](C)O)[C@@H](C)O [compound 12] (H-CSNTAVCVLGRLSQELHRLQTYPRTNVGSKAF-NH2; disulfide 1-7 (inferred)) | 96.1% |
| CC(C)C[C@H](NC(=O)[C@H](CCCNC(=N)N)NC(=O)CNC(=O)[C@H](CC(C)C)NC(=O)[C@@H](NC(=O)[C@@H]1CSSC[C@H](NC(=O)[C@H](C)N)C(=O)N[C@@H](CC(N)=O)C(=O)N[C@@H](CC(C)C)C(=O)N[C@@H](CO)C(=O)N[C@@H](C)C(=O)N1)C(C)C)C(=O)N[C@@H](CO)C(=O)N[C@@H](CCC(N)=O)C(=O)N[C@@H](CCC(=O)O)C(=O)N[C@@H](CC(C)C)C(=O)N[C@@H](Cc1c[nH]cn1)C(=O)N[C@@H](CCCNC(=N)N)C(=O)N[C@@H](CC(C)C)C(=O)N[C@@H](CCC(N)=O)C(=O)N[C@H](C(=O)N[C@@H](Cc1ccc(O)cc1)C(=O)N1CCC[C@H]1C(=O)N[C@H](C(=O)N[C@@H](CC(N)=O)C(=O)N[C@H](C(=O)NCC(=O)N[C@@H](CO)C(=O)NCC(=O)N[C@H](C(=O)N1CCC[C@H]1C(N)=O)[C@@H](C)O)[C@@H](C)O)[C@@H](C)O)[C@@H](C)O [compound 13] (H-ACNLSACVLGRLSQELHRLQTYPTNTGSGTP-NH2; disulfide 2-7 (inferred)) | 95.8% |
